Values after ≈ are worked out from the molar mass of the structure shown.
details: buffer; pH 7.4; 200.0 µM

Row | Structure (SMILES) | solubility kinetic [µg/mL]
1 | CC(=O)Nc1cccc(NC(=O)/C=C/c2ccc(S(=O)(=O)N3CCOCC3)cc2)c1 | 18.8 (≈ 43.8 µM)
2 | Cc1cccc(OCC(=O)Nc2ccc3oc(=O)ccc3c2)c1 | 3.3 (≈ 10.7 µM)
3 | O=C(COC(=O)c1ccc(Cl)nc1)NC1CCCCCC1 | > 46.6
4 | COc1ccc2c(CCNC(N)=S)c[nH]c2c1 | 17.7 (≈ 71 µM)
5 | Cc1ccc(OCc2cnc(Cl)s2)c(C)c1 | < 0.5
6 | Cc1cc(Cl)nc(Cl)c1C(=O)NCCc1ccccc1 | > 46.4
7 | CCC(CC)NC(=O)Nc1ccc(C)cc1 | 21.4 (≈ 97.1 µM)
8 | O=C(c1ccc2c(c1)OCO2)C1CCCN(CC2CCCCC2)C1 (stereo not given) | > 49.4
9 | CC(C)(C)NS(=O)(=O)c1ccc(NC(=O)C2CCCO2)cc1 (stereo not given) | 43.7 (≈ 134 µM)
10 | CCOc1cccc(C(=O)NC(=S)Nc2ccc(Cl)cc2C(=O)O)c1 | 55.2 (≈ 146 µM)
11 | Nc1cc(C(=O)OCC(=O)N2CCOCC2)ccc1Cl | > 44.8
12 | COc1ccc(C(=O)Nc2cc(S(=O)(=O)N3CCCC3)ccc2Cl)cc1 | 9.2 (≈ 23.3 µM)
13 | CCOC(=O)C1CCN(S(=O)(=O)c2ccc(-c3ccccn3)s2)CC1 | 3.9 (≈ 10.2 µM)
14 | C=CCn1cccc(C(=O)Nc2ccc(C)c(Cl)c2)c1=O | < 0.3
15 | CCC(=O)NCc1csc(-c2cccs2)n1 | > 37.9
16 | CCOC(=O)c1cnc(SCC(=O)NNC(=O)c2ccco2)nc1N | > 54.8
17 | O=C(NCC1COc2ccccc2O1)c1cccs1 (stereo not given) | 39.7 (≈ 144 µM)
18 | CCOC(=O)c1ccc(NC(=O)CC2SC3=NCCN3C2=O)cc1 (stereo not given) | > 52.1
19 | O=C(COC(=O)c1cc[n+]([O-])cc1)Nc1ccc([N+](=O)[O-])cc1 | > 47.6
20 | C=CCOc1ccc(/C=C2\SC(=S)N(CCC(=O)O)C2=O)cc1 | 48 (≈ 137 µM)
21 | O=c1c2ccccc2ncn1-c1cccc([N+](=O)[O-])c1 | 3.8 (≈ 14.2 µM)
22 | Brc1ccccc1OCCN1CCOCC1.O=C(O)C(=O)O | > 56.4
23 | CN1C(=O)C(=Cc2cccnc2)C(=O)N(C)C1=O | 32.3 (≈ 132 µM)
24 | Cc1ccc(NCCC(=O)c2ccccc2)cc1Cl | < 0.6

Row | Structure (SMILES) | solubility kinetic [µg/mL]
25 | COc1ccc2c(c1)[nH]c1c(=O)n(CCN3CCOCC3)cnc12 | 47.6 (≈ 145 µM)
26 | Cc1onc(NC(=O)CSCC(=O)O)c1Br | > 46.4
27 | O=C(COc1ccccc1Cl)NCCNC(=O)c1cccnc1 | > 50.1
28 | Cc1cc(C)cc(NC(=O)Nc2cnccn2)c1 | 2.4 (≈ 9.91 µM)
29 | COc1ccc(NC(=O)c2cc3ccccc3oc2=O)c(OC)c1 | < 0.7
30 | O=C(CN1CCCC1)Nc1ccc([N+](=O)[O-])cc1Cl | 36.2 (≈ 128 µM)
31 | CC(=O)N1CCn2c3c(c4cc(C)ccc42)CCCC31 (stereo not given) | 38.6 (≈ 144 µM)
32 | Cl.O=C(c1cc2c(s1)CCCC2)N1CCN(CCO)CC1 | > 49.6
33 | COc1cc(Cl)c(C)cc1NC(=O)CSC1=NCCS1 | 11 (≈ 33.2 µM)
34 | COCCNc1nc(-c2cc(C)c(C)cc2C)cs1.Cl | 35.4
35 | CCOc1ccc(C(=O)CCC(=O)Nc2ccncc2)cc1 | 42.9 (≈ 144 µM)
36 | CNc1nc(-c2ccccc2)cc(C)c1S(C)(=O)=O | 22.8 (≈ 82.5 µM)
37 | C=CCn1c(SCC(=O)Nc2cc(C)on2)nnc1-c1ccccc1OC | > 57.8
38 | O=C(c1ccccc1CCc1ccccc1)N1CCCC1 | 40.5 (≈ 145 µM)
39 | Cc1cccc(CN(C(=S)Nc2c(C)cccc2C)c2cccnc2)c1 | 16.9 (≈ 46.7 µM)
40 | Clc1cccc(Cl)c1-c1noc(CN2CCOCC2)n1 | 31.8 (≈ 101 µM)
41 | CN(C)C(=O)c1ccc(NC(=O)c2ccccc2-c2ccccc2)cc1 | > 51.7
42 | COc1cc(NC(=O)CN2C(=O)NC(CC(C)C)C2=O)cc(OC)c1OC (stereo not given) | > 56.9
43 | Clc1cccc(CN2CCc3c([nH]c4ccccc34)C2)c1 | 8.2 (≈ 27.6 µM)
44 | Cc1c2ccccc2nc2ccccc12 | 7.9 (≈ 40.9 µM)
45 | COc1cc2ccccc2cc1C(=O)Nc1ccc(C)cn1 | < 0.3
46 | O=C(COC(=O)c1ccc(O)cc1)NC(c1ccccc1)c1ccccc1 | 1.7 (≈ 4.7 µM)
47 | COc1ccc(C(=O)OCC(=O)c2ccc[nH]2)c(OC)c1 | > 43.4
48 | CCCCNC(=O)C1(NC(=O)Nc2ccccc2)CCCCC1 | 5.5 (≈ 17.3 µM)

Row | Structure (SMILES) | solubility kinetic [µg/mL]
49 | CC(=O)Nc1ccc(S(=O)(=O)Nc2nc3ccccc3nc2N2CCOCC2)cc1 | > 64.1
50 | Cc1ccc(Cl)cc1NC(=O)C1CCCN(S(C)(=O)=O)C1 (stereo not given) | 5.8 (≈ 17.5 µM)
51 | Cc1csc(SCC(=O)NC2CCS(=O)(=O)C2)n1 (stereo not given) | > 46
52 | CCOC(=O)c1[nH]cnc1C(=O)Nc1ccccc1OC | 10.3 (≈ 35.6 µM)
53 | CC(=NCc1ccc2c(c1)OCO2)c1c(O)n(-c2ccccc2)c(=O)[nH]c1=O | 6.6 (≈ 17.4 µM)
54 | CCC(=O)N1CCN(c2ccc(NC(=O)c3ccc4ccccc4c3)cc2)CC1 | < 0.3
55 | CCc1noc(C)c1C(=O)NCCc1ccccc1 | > 38.7
56 | CCOCCCn1c(SCC(=O)N2CCOCC2)nc2ccccc2c1=O | > 58.7
57 | Cn1c(=O)[nH]c(=O)c2cc(C(=O)c3cc(F)ccc3O)cnc21 | 8 (≈ 25.4 µM)
58 | c1ccc(CCCN2CCN(c3ccccn3)CC2)cc1 | 26.8 (≈ 95.2 µM)
59 | C=CCn1c(SCC(C)=O)nc2scc(-c3ccc(C)o3)c2c1=O | 1.6 (≈ 4.44 µM)
60 | COc1ccc(NC(=O)COc2ccc(Br)cc2)c(OC)c1 | < 0.8
61 | O=C(Nc1nc2ccccc2n1CCN1CCOCC1)c1ccccc1 | 51.4 (≈ 147 µM)
62 | Cc1nc(Cl)c(N=Cc2cccc([N+](=O)[O-])c2)c(Cl)n1 | > 46.7
63 | CCc1nc(SCC(=O)O)c2c3c(sc2n1)COC(C)(C)C3 | > 50.8
64 | O=S(=O)(c1ccc2c(c1)CCC2)N1CCNCC1 | > 40
65 | CCc1ccc(C(C)NC(=S)NC2CCCCC2)cc1 (stereo not given) | 11.4 (≈ 39.2 µM)
66 | Cl.Fc1ccc(Nc2nc(NCc3ccco3)c3ccccc3n2)cc1 | 2.1
67 | Cc1ccc2[nH]c(=O)c3cc(C(=O)NCCC(C)C)sc3c2c1 | < 0.4
68 | C=CCN1C(=O)C2(OCCCO2)c2cccc(Cl)c21 | 15.1 (≈ 54 µM)
69 | CCOC(=O)c1csc(NC(=O)c2cc(-c3ccccn3)nc3ccccc23)n1 | 1 (≈ 2.47 µM)
70 | CCS(=O)(=O)N1CCN(c2ncnc3sc(C)c(C)c23)CC1 | > 51.1
71 | CC(=Nc1ccc2c(c1)CCC2)c1c(O)n(-c2ccccc2)c(=O)[nH]c1=O | < 0.3
72 | O=C(NCc1ccco1)c1ccc(COc2ccccc2[N+](=O)[O-])o1 | > 51.3

Row | Structure (SMILES) | solubility kinetic [µg/mL]
73 | CCOc1ccc(NC(=O)CNC(=O)Cc2ccccc2)cc1 | 4.4 (≈ 14.1 µM)
74 | O=C1NC(=O)N(c2ccc3c(c2)OCO3)C(=O)/C1=C\c1ccsc1 | > 51.3
75 | Cc1cccc(CSCc2ccc(C(=O)NC3CCCC3)o2)c1 | 25.6 (≈ 77.7 µM)
76 | COc1ccc(/C=C2\SC(=S)N(CC3CCCO3)C2=O)cc1 (stereo not given) | < 0.7
77 | COc1ccccc1CC(=O)Nc1cccc(C)n1 | > 38.4
78 | CCN1/C(=C/C(=S)Nc2ccccc2)Sc2ccccc21 | 6.7 (≈ 21.4 µM)
79 | CCN(CC)C(=O)c1ccc(COc2ccccc2Cl)o1 | 45.5 (≈ 148 µM)
80 | Fc1ccc(C(CCNCc2cccs2)c2ccco2)cc1 (stereo not given) | 34.2 (≈ 108 µM)
81 | COc1ccc(-c2c3c(=O)n(C)c(=O)n(C)c3cn2-c2ccc(O)cc2)cc1 | 20.4 (≈ 54.1 µM)
82 | CC(=O)c1sc2c(c1N)c(=O)[nH]c(=O)n2-c1ccccc1 | 8.5 (≈ 28.2 µM)
83 | COc1cc(OC)cc(C(=O)NC(C)CCc2ccccc2)c1 (stereo not given) | 34.2 (≈ 109 µM)
84 | CC(C)(C)NC(=O)CSc1nc(N)cc(=O)[nH]1 | > 38.4
85 | Cc1ccc(NC(=O)CN2C(=O)CNC2=O)cc1 | > 37.1
86 | CCCNC(=O)COC(=O)c1c2c(nc3ccccc13)CCC2 | 45.5 (≈ 146 µM)
87 | CC(C)NC(=O)c1ccc2c(=O)n(CC3CCCO3)c(=S)[nH]c2c1 (stereo not given) | 4.4 (≈ 12.7 µM)
88 | COc1cc2c(cc1OC)C(C)N(S(=O)(=O)c1cccs1)CC2 (stereo not given) | 41.1 (≈ 116 µM)
89 | c1ccc2[nH]c(SCC3CCCCO3)nc2c1 (stereo not given) | > 37.3
90 | OCc1ccccc1CN1CCCCCC1 | 28.8 (≈ 131 µM)
91 | Cc1cccc(NC(=O)CC2(CC(=O)O)CCCC2)c1 | 41.2 (≈ 150 µM)
92 | COc1ccc(/C=C2\C(=O)NCC(=O)N2C)cc1 | 11.4 (≈ 46.3 µM)
93 | CCCCc1ccc(NC(=O)N[C@@H](CC(C)C)C(=O)O)cc1 | > 46
94 | CN(Cc1ccccc1)/C(=N/O)c1cccc(Cl)c1 | 26.4 (≈ 96.1 µM)
95 | Cc1ccc(NC(=O)CNC(=O)COc2ccccc2)nc1 | 14.9 (≈ 49.8 µM)
96 | CCC(C)(C(=O)NC1CCCC1)N(C)C(=O)c1ccccn1 (stereo not given) | > 45.5

Row | Structure (SMILES) | solubility kinetic [µg/mL]
97 | O=c1nc2n(c3cccc(Cl)c13)CCCCC2 | 31 (≈ 125 µM)
98 | Cc1cccc(NC(=O)c2cccnc2Oc2ccccc2)c1C(=O)O | > 52.3
99 | O=C(Oc1c(-c2ccccc2)c(=O)n2c3c(cccc13)CC2)c1ccccc1 | 4.8 (≈ 13.1 µM)
100 | Cc1ccc(CNCCNCCO)s1.Cl | > 43.1
101 | COc1ccc(NC(=O)c2ccc(NC(=O)C3CC3)cc2)cc1 | < 0.3
102 | COc1ccc(NC(=S)N2CCc3cc(OC)c(OC)cc3C2)cc1 | 1.5 (≈ 4.18 µM)
103 | CCOC(=O)N1CCc2c(sc(N)c2C#N)C1 | 31.2 (≈ 124 µM)
104 | CCCCN1CC(O)=C(c2nc(-c3ccc(Br)cc3)cs2)C1=N | < 0.3
105 | CS(=O)(=O)N1c2cccc3cccc(c23)S1(=O)=O | 7.7 (≈ 27.2 µM)
106 | CCOC(=O)c1sc(-c2cccs2)nc1C | 2.6 (≈ 10.3 µM)
107 | CCOc1ccc(C(=O)NCCNC(=O)c2ccc(OCC)cc2)cc1 | 1.5 (≈ 4.21 µM)
108 | Cc1ccc(S(=O)(=O)Nc2c(C)nn(C)c2C)c(C)c1 | > 44
109 | CCCCNC(=O)c1cc(-c2ccc3c(c2)OCO3)on1 | 0.3 (≈ 1.04 µM)
110 | Cc1ccc(CNC(=O)CSCc2ccccc2)cc1 | 19.7 (≈ 69 µM)
111 | CN1CCN(S(=O)(=O)c2cc([N+](=O)[O-])ccc2Cl)CC1 | > 48
112 | CCOC(=O)CSc1nc(-c2ccccc2)ns1 | 6.3 (≈ 22.5 µM)
113 | CN(C)CCNC(C(=O)Nc1cc(Cl)cc(Cl)c1)c1ccccc1 (stereo not given) | > 54.9
114 | Fc1ccccc1OCCCn1ccnc1 | > 33
115 | COC(=O)Cn1c(C)nc([N+](=O)[O-])c1Br | 31.9 (≈ 115 µM)
116 | CN(C(=O)CSc1nccc(=O)[nH]1)C1CCCCC1 | > 42.2
117 | O=C(CSc1n[nH]c(-c2ccc(Br)cc2)n1)N1CCOCC1 | > 57.5
118 | CC(Nc1nc(-c2ccccc2F)nc2ccccc12)c1ccccc1 (stereo not given) | 3.2 (≈ 9.32 µM)
119 | CCn1ccnc1CN(C)Cc1nc(-c2ccccc2)no1 | 31.7 (≈ 107 µM)
120 | Nn1c(SCC(=O)NCC2CCCO2)nnc1-c1ccco1 (stereo not given) | > 48.5
